Results from US20080312200A1, “Medicament Comprising A Hormone Combination” (Grunenthal GmbH, priority 2006, published 2008).
pIC50, pKi: −log10 of the molar value.

Columns and labels:
[1] = biological target: T1, human progesterone receptor (Homo sapiens, UniProt P06401); test: Affinity for the human progesterone receptor ([3H]R 5020 displacement, MCF-7 cytosol); format: binding; details: for pIC50: 2 nM [3H]R 5020, MCF-7 cytosol, 20 hours, approx. 4° C.; for pKi: Cheng-Prusoff from IC50
T1 construct: The cytosolic fractions of MCF-7 cells, which contain the human progesterone receptor, are used; endogenous in cells; host or cells: MCF-7 cells (cytosolic fraction)
T1 sequence (P06401 1-933): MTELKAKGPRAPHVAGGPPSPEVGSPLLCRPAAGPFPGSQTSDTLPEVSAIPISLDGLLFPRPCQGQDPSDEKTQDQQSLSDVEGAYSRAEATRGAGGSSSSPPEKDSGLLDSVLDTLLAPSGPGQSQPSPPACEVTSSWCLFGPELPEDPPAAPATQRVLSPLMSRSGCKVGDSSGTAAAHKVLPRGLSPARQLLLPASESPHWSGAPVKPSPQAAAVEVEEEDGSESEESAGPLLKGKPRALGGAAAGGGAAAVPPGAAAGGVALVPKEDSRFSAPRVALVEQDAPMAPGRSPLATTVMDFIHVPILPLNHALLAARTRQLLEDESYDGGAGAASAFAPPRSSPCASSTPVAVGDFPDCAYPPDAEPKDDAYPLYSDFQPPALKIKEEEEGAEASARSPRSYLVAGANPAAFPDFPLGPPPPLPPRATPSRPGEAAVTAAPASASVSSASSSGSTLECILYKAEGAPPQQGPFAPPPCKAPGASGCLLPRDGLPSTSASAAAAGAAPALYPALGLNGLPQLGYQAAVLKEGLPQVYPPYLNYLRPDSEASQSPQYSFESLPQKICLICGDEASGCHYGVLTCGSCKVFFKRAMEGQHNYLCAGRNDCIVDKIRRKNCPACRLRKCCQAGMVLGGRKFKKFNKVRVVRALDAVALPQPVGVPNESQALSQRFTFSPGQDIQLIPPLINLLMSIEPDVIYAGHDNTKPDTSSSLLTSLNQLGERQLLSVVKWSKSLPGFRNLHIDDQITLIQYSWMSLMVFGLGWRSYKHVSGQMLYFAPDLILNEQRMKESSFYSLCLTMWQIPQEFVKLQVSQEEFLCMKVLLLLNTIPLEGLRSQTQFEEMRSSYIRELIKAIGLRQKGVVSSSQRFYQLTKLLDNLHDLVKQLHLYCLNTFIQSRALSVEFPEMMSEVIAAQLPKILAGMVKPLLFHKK
Method: (§1) The following determination of the affinity of 3-α-OH-CMA or 3-β-OH-CMA for the human progesterone receptor is based on the experimental methods published by Eckert et al. (Cancer Research, 1982, vol. 42, pp. 139-144). The corresponding disclosure is hereby introduced as a reference and is part of the disclosure of the present application.
The cytosolic fractions of MCF-7 cells, which contain the human progesterone receptor, are used. The reference substance used is 2 nM of [^3H] R 5020; 1 μM of R 5020 is used for determining nonspecific binding. The incubation period of the substances ([^3H] R 5020, 3-α-OH-CMA or 3-β-OH-CMA) on the receptor amounts in each case to 20 hours at a temperature of approx. 4° C. Stock solutions (5×10^−2 M) of 3-α-OH-CMA or 3-β-OH-CMA are in each case prediluted 1:10 in 75% strength DMSO and then further diluted 1:5 in 25% strength DMSO. The final concentrations of 3-α-OH-CMA or 3-β-OH-CMA in the test are 3×10^−10 M, 3×10^−9 M, 1×10^−8 M, 3×10^−8 M, 1×10^−7 M, 3×10^−7 M, 1×10^−6 M and 1×10^−5 M. After the above-stated incubation period of the substances, the incubation batches are filtered using standard methods and washed and the radioactivity of the filters is determined with a scintillation counter. Such standard methods are known to a person skilled in the art. The experiments are in each case carried out on duplicate batches.
The corresponding IC50 values are calculated by nonlinear regression analysis of the displacement curves using the Hill curve fitting formula. A person skilled in the art is aware of such a calculation procedure.
The corresponding Ki values (inhibition constants) are determined using the Cheng-Prusoff equation (Ki=IC50/(1+(L/KD)), where L denotes the concentration of the radioligand in the test and KD the affinity of the radioligand for the receptor).

human androgen receptor = biological target: T2, human androgen receptor (Homo sapiens, UniProt P10275, T878A); test: Affinity for the human androgen receptor ([3H]methyltrienolone displacement, LNCaP cytosol); format: binding
T2 construct: The cytosolic fractions of LNCaP cells, which contain the human androgen receptor, are used; endogenous in cells; host or cells: LNCaP cells (cytosolic fraction)
T2 sequence (P10275 1-920 T878A): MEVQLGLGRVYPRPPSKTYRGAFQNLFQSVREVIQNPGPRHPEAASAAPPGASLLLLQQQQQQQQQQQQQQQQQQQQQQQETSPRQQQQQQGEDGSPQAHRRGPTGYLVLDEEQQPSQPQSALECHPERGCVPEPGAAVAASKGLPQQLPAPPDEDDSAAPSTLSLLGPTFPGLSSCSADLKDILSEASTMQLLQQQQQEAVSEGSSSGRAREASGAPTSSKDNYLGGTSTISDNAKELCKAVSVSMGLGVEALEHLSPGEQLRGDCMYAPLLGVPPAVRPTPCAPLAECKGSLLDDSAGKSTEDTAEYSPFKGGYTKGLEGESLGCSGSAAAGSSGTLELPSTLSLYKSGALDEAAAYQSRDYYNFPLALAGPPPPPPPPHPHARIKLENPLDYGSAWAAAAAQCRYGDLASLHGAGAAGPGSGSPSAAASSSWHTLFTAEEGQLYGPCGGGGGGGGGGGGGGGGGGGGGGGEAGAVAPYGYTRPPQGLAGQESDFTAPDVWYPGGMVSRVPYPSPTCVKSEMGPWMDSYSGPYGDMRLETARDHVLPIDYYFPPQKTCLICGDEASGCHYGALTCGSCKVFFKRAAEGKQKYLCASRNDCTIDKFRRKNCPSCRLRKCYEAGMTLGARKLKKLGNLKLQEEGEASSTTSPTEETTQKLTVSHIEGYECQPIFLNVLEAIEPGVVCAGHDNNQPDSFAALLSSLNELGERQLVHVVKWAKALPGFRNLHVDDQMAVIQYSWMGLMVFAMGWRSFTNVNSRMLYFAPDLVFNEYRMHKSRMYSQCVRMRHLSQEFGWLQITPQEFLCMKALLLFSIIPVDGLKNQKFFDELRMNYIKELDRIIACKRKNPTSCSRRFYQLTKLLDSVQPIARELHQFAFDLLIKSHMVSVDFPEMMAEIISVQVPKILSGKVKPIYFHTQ
Method: as §1, with “androgen” for “progesterone”, “Zava” for “Eckert”, “(Endocrinology, 1979,” for “(Cancer Research, 1982,”, “104,” for “42,”, “1007-1012).” for “139-144).”
The cytosolic fractions of LNCaP cells, which contain the human androgen receptor, are used. The reference substance used is 0.5 nM of [^3H]methyltrienolone; 1 μM of mibolerone is used for determining nonspecific binding. The incubation period of the substances ([^3H]methyltrienolone, 3-α-OH-CMA or 3-β-OH-CMA) on the receptor amounts in each case to 24 hours at a temperature of approx. 4° C. The stock solutions, the dilution series of 3-α-OH-CMA or 3-β-OH-CMA, the washing steps, the determination of radioactivity, and the methods for calculating the particular IC50 and Ki values match the experimental protocol described in point 2).

GABAA receptors = test: Influence on the binding of [3H]muscimol to GABAA receptors (rat cerebral cortex membranes); details: 5 nM [3H]muscimol
Method: The following determinations of the influence of allopregnanolone, 3-α-OH-CMA or 3-β-OH-CMA on the binding of muscimol to GABAA receptors (rat) are based on the experimental methods published by Snodgrass, S. R. (Nature, 1979, vol. 273, p. 392-394). The corresponding disclosure is hereby introduced as a reference and is part of the disclosure of the present application.
Membrane preparations are produced from rat cerebral cortex material. The reference substance used is 5 nM of [^3H] muscimol; 10 μM of muscimol are used for determining nonspecific binding. The incubation period of the substances ([^3H]muscimol, allopregnanolone) on the receptor amounts in each case to 10 minutes at a temperature of approx. 4° C. The stock solution (5×10^−2 M) of allopregnanolone is in each case prediluted 1:10 in 75% strength DMSO and then further diluted 1:5 in 25% strength DMSO. The final concentration of allopregnanolone in the test is in each case 1×10^−10 M, 1×10^−9 M, 1×10^−8 M, 1×10^−7 M, 1×10^−6 M and 1×10^−5 M. After the above-stated incubation period of the substances, the incubation batches are filtered using standard methods and washed and the radioactivity of the filters is determined with a scintillation counter. Such standard methods are known to a person skilled in the art. The experiments are in each case carried out on duplicate batches.
The influence of 3-α-OH-CMA or 3-β-OH-CMA on the binding of muscimol to GABAA receptors (rat) is determined in a manner similar to the above-described method. 3-α-OH-CMA or 3-β-OH-CMA is used instead of allopregnanolone.

| Compound | pIC50 [1] | pKi [1] | pIC50 (human androgen receptor) | pKi (human androgen receptor) | increase of binding of radioactively labelled muscimol (GABAA receptors; 0.001 μM test substance) [%] | increase of binding of radioactively labelled muscimol (GABAA receptors; 0.1 μM test substance) [%] | increase of binding of radioactively labelled muscimol (GABAA receptors; 1 μM test substance, 10 min, approx. 4° C.) [%] |
| --- | --- | --- | --- | --- | --- | --- | --- |
| CC(=O)O[C@]1(C(C)=O)CC[C@H]2[C@@H]3C=C(Cl)C4=C[C@H](O)CC[C@]4(C)[C@H]3CC[C@@]21C [3-α-OH-CMA, 3α-hydroxy-6-chloro-17α-acetoxy-4,6-pregnadien-20-one] | 7.41 | 7.89 | 7.00 | 7.08 | 12 |  |  |
| CC(=O)O[C@]1(C(C)=O)CC[C@H]2[C@@H]3C=C(Cl)C4=C[C@@H](O)CC[C@]4(C)[C@H]3CC[C@@]21C [3-β-OH-CMA, 3β-hydroxy-6-chloro-17α-acetoxy-4,6-pregnadien-20-one] | 7.74 | 8.22 | 7.60 | 7.70 |  | 31 |  |
| CC(=O)[C@H]1CC[C@H]2[C@@H]3CC[C@H]4C[C@H](O)CC[C@]4(C)[C@H]3CC[C@]12C [allopregnanolone, reference compound] |  |  |  |  |  |  | 38 |
